Data published in PMC3465774, “Plant odorants interfere with detection of sex pheromone signals by male Heliothis virescens” (Frontiers in Cellular Neuroscience, 2012).

Target: T1, HR13 (Heliothis virescens, UniProt Q6A1K1)
T1 construct: stably expressed, tetracycline-induced, in Flp-In T-REx293/Galpha15 (HEK293) cells; no Orco mentioned
T1 sequence (Q6A1K1 1-425): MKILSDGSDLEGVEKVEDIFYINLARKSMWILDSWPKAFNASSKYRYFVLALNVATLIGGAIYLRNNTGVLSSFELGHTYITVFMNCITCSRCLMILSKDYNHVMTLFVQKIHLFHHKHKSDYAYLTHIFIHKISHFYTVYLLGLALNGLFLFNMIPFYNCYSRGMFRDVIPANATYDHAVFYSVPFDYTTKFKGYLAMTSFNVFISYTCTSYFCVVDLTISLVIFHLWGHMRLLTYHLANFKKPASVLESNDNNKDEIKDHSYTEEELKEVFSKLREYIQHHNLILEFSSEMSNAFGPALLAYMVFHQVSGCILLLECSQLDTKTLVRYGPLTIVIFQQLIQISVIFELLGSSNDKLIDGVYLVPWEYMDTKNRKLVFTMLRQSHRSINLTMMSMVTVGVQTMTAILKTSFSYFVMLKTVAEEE
Assay: fura-2 calcium imaging, mixture with Z11-16:Ald
Assay type: cell-based
Details: inhibitor of response to 1 nM Z11-16:Ald; no agonism at 100 nM; competitive or allosteric not resolved

C=CC(C)(O)CCC=C(C)C (stereo not shown) [linalool]
F/F0 of mixture (1, 10, 100 nM): linalool reduced the pheromone-induced calcium response of HR13 cells in a dose-dependent manner
